This is an account of results in patent publication US20250289813A1, “CDK INHIBITORS, PHARMACEUTICAL COMPOSITIONS, AND THERAPEUTIC APPLICATIONS” (ONQUALITY PHARMACEUTICALS CHINA LTD., priority 2022, published 2025).

Usually IC50 stands for the concentration at which inhibition is half-maximal. Usually EC50 stands for the concentration at which the effect is half-maximal.

Test [1] has as its target CDK4/cyclin D1 (Homo sapiens (Human), UniProt P11802). Kind of test: CDK4 Caliper Mobility Shift assay. It counts as biochemical. In short, it runs like this: (§1)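 Caliper mobility-shift kinase assay with FAM-labeled peptide substrate. CDK4/cyclin D1 (15 nM) ran in 20 mM HEPES pH 7.5, 0.01% Triton X-100 at […] ATP; CDK6/cyclin D1 (7.5 nM) in 50 mM HEPES pH 7.5, 0.0015% BRIJ-35 at […] ATP. Compound was pre-incubated 10 min, reactions ran at 28 °C, and IC50 came from percent conversion inhibition.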

The test system of test [2] is BALB/c mice. Nature of the test: Irinotecan-induced diarrhea/constipation mouse model. Format: in vivo. Conditions: 4 h before and 8 h after irinotecan (240 mg/kg), Day 7. As for the experimental part:
A compound was evaluated in an irinotecan-induced diarrhea/constipation mouse model for its protective effect on the cytotoxicity induced by a chemotherapy drug. On day 0, BALB/c mice (20-25 g, 7-8 weeks of age) were randomly divided into 3 groups (vehicle, irinotecan, and compound treatment) with 10 mice in each group. In the vehicle group, the mice were administered orally with the same medium in the same amount as used in the treatment group for the compound and then injected with the same medium in the same amount as used in the irinotecan group. In the irinotecan group, the mice were administered orally with the same medium in the same amount as used in the treatment group for the compound and then injected with irinotecan (240 mg/kg). In the treatment group, the mice were administrated orally with the compound and then injected with irinotecan (240 mg/kg). The compound was formulated with a 0.5% CMC solution. […]
On Day 7, the diarrhea grade of each mouse was determined according to the method described in Kurita et al., Cancer Chemother. Pharmacol. 2000, 46, 211-20, the disclosure of which is incorporated herein by reference in its entirety. The diarrhea remission rates were calculated using the formula of Diarrhea remission rate (%)=(diarrhea grade in […]−diarrhea grade in treatment group)/diarrhea grade in 5-FU group×100%.

Test [3] has as its system COLO205 human colon cancer cells. Kind of test: CASPASE-GLO 3/7 apoptosis assay (protection against chemotherapy drug induced cytotoxicity). It counts as cell-based. As for the experimental part:
The CASPASE-GLO 3/7 apoptosis assay was used to evaluate the protective effect of a compound on the cytotoxicity induced by a chemotherapy drug. The apoptosis assay was carried out using COLO205 human colon cancer cells. The cells were grown at 37° C. in a 5% CO2 humidified incubator in PRIM1640 supplemented with 10% FBS and 0.01 mg/mL bovine insulin. The cells were seeded at 4,000 cells/well in a 96-well plate. After incubated overnight, the cells were pretreated with a compound at predetermined concentrations or a vehicle for 16 h, followed by addition of a chemotherapy drug. After incubated for another 48 h, the CASPASE-GLO 3/7 reagent (100 μL/well) was added. The cells were mixed on an orbital shaker for 10 min and incubated at room temperature for 2 h. The 96-well plate was read with an ENVISION reader.

In test [4] the test system is MCF-7 human breast cancer cells. Kind of test: CELLTITER-GLO luminescent cell viability assay. It counts as cell-based. Conditions: MCF7, 192 h, MCF-7 cells, 8 days, read-out: EC50 (Effect on Cell Viability). In outline:
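MCF-7 cells grown in EMEM with 10% FBS and insulin, seeded at 3,000 cells/well and left to adhere overnight. Compound exposure lasted 8 days at 37 °C; viability was read by CellTiter-Glo luminescence.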
On the technique in general: Cellular ATP, detected with luciferase, serves as a proxy for viable cell number.

The target in test [5] is CDK6/cyclin D1 (Homo sapiens (Human), UniProt Q00534). Nature of the test: CDK6 Caliper Mobility Shift assay. It counts as biochemical. In outline: as §1
CDK6/cyclin D1, sequence (Q00534 whole entry): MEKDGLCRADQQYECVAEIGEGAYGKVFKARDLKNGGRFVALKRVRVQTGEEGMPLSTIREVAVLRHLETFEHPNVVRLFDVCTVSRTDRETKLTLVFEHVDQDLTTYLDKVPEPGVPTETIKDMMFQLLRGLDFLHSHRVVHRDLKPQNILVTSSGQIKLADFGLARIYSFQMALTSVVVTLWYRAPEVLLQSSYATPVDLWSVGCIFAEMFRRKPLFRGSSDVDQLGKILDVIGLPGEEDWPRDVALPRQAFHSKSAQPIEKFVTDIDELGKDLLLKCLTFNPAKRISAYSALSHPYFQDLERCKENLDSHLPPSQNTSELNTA
CDK6/cyclin D1, sequence (P24385 whole entry partner): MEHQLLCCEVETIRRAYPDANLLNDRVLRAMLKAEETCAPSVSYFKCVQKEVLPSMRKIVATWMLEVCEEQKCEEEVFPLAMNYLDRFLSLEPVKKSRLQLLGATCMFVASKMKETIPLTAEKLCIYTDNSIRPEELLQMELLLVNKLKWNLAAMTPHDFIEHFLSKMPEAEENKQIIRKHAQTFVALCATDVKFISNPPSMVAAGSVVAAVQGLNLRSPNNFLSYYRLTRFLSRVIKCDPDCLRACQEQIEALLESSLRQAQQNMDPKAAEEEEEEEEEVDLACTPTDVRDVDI
In test [6] the test system is BALB/c mice. Nature of the test: 5-FU-induced diarrhea mouse model. Conditions: 8 h before and 4 h after 5-FU (175 mg/kg), day 7. It counts as in vivo. As for the experimental part:
A compound was evaluated in a 5-FU-induced diarrhea mouse model for its protective effect on the cytotoxicity induced by the chemotherapy drug 5-FU. On day 0, BALB/c mice (20-25 g, 7-8 weeks of age) were randomly divided into 3 groups (vehicle, 5-FU, and compound treatment) with 10 mice in each group. In the vehicle group, the mice were administered orally with the same medium in the same amount as used in the treatment group for the compound and then injected with the same medium in the same amount as used in the 5-FU group. In the 5-FU group, the mice were administered orally with the same medium in the same amount as used in the treatment group for the compound and then injected with 5-FU (175 mg/kg). In the treatment group, the mice were administrated orally with the compound and then injected with 5-FU (175 mg/kg). The compound was formulated with a 0.5% CMC solution.
On day 7, the diarrhea grade of each mouse was determined according to the method described in Kurita et al., Cancer Chemother. Pharmacol. 2000, 46, 211-20, the disclosure of which is incorporated herein by reference in its entirety. Diarrhea remission rates were calculated using the formula of Diarrhea remission rate (%)=(diarrhea grade in 5-FU group—diarrhea grade in treatment group)/diarrhea grade in 5-FU group×100%.

CDK4/cyclin D1, sequence (P11802 whole entry): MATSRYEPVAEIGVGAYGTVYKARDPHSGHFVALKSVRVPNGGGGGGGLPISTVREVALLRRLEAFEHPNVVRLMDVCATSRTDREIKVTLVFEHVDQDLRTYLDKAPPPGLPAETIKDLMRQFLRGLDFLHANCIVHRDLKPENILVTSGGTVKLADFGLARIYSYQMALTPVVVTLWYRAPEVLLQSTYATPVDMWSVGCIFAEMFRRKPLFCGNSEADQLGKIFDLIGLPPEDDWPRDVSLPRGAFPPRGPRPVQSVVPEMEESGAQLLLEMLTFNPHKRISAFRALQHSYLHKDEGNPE
CDK4/cyclin D1, sequence (P24385 whole entry partner): as the sequence (P24385 whole entry partner) above

With `CC(=O)c1c(C)c2cnc(Nc3ccc(N4CCN(S(=O)(=O)NC(=O)OCCO)CC4)cn3)nc2n(C2CCCC2)c1=O` [Compound A1, 2-hydroxyethyl ((4-(6-((6-acetyl-8-cyclopentyl-5-methyl-7-oxo-7,8-dihydropyrido[2,3-d]pyrimidin-2-yl)amino)pyridin-3-yl)piperazin-1-yl)sulfonyl)carbamate], the IC50 in test [1] and in test [5] was ≤ 0.2 µM each time. Also, the “Remission Rate (diarrhea remission rate)” value in test [2] (5 mg/kg oral) came out at 50%; in test [2] (25 mg/kg oral) it was 70%; in test [2] (100 mg/kg oral) it was 20%. In addition, the “RPR (relative protection rate)” value in test [3] (compound 0.1 μM, 5-Fu (10 μM)) stood at 13%; in test [3] (compound 1 μM, 5-Fu (10 μM)), 82%; in test [3] (compound 5 μM, 5-Fu (10 μM)) it was 90%; in test [3] (compound 10 μM, 5-Fu (10 μM)), 68%; in test [3] (compound 100 μM, 5-Fu (10 μM)) it was 11%. In test [4], the EC50 is > 10 µM.
Regarding `CC(=O)c1c(C)c2cnc(Nc3ccc(N4CCN(S(=O)(=O)NC(=O)[C@H](C)N)CC4)cn3)nc2n(C2CCCC2)c1=O` [Compound A6, (S)—N-((4-(6-((6-acetyl-8-cyclopentyl-5-methyl-7-oxo-7,8-dihydropyrido[2,3-d]-pyrimidin-2-yl)amino)pyridin-3-yl)piperazin-1-yl)sulfonyl)-2-aminopropanamide], the concentration for half-maximal inhibition (IC50) in test [1] and in test [5] was ≤ 0.2 µM each time. The “Remission Rate (diarrhea remission rate)” value is reported as 20% in test [6] (5 mg/kg oral), 66% in test [6] (50 mg/kg oral) and 33% in test [6] (100 mg/kg oral). Also, the “RPR (relative protection rate)” value in test [3] (compound 0.01 μM, Irinotecan (20 μM)) was 20%; in test [3] (compound 0.2 μM, Irinotecan (20 μM)), 36%; in test [3] (compound 2 μM, Irinotecan (20 μM)) it was 89%; in test [3] (compound 20 μM, Irinotecan (20 μM)), 73%; in test [3] (compound 50 μM, Irinotecan (20 μM)), 57%. Also, the 50% effective concentration (EC50) in test [4] is ≤ 1 µM.
Consider `CC(=O)c1c(C)c2cnc(Nc3ccc(N4CCN(S(=O)(=O)N5CC(CO)OC5=O)CC4)cn3)nc2n(C2CCCC2)c1=O` (centres unmarked) [Compound A12, 3-((4-(6-((6-Acetyl-8-cyclopentyl-5-methyl-7-oxo-7,8-dihydropyrido[2,3-d]-pyrimidin-2-yl)amino)pyridin-3-yl)piperazin-1-yl)sulfonyl)-5-(hydroxymethyl)oxazolidin-2-one], for which the IC50 in test [1] and in test [5] was ≤ 0.2 µM in each case. In addition, the “Remission Rate (diarrhea remission rate)” value in test [6] (10 mg/kg oral) is 50%; in test [6] (25 mg/kg oral), 90%. Also, the half-maximal effective concentration (EC50) in test [4] was in the range of 1 to 10 µM.
`CC(=O)c1c(C)c2cnc(Nc3ccc(N4CCN(S(=O)(=O)NC(=O)CN)CC4)cn3)nc2n(C2CCCC2)c1=O` [Compound A29, N-((4-(6-((6-Acetyl-8-cyclopentyl-5-methyl-7-oxo-7,8-dihydropyrido[2,3-d]-pyrimidin-2-yl)amino)pyridin-3-yl)piperazin-1-yl)sulfonyl)-2-aminoacetamide]: the IC50 in test [1] and in test [5] was ≤ 0.2 µM each time. Moreover, the “RPR (relative protection rate)” value in test [3] (compound 1 μM, 5-Fu (10 μM)) stood at 89%; in test [3] (compound 10 μM, 5-Fu (10 μM)) it was 78%. The EC50 in test [4] was ≤ 1 µM.
For the compound `CC(=O)c1c(C)c2cnc(Nc3ccc(N4CCN(S(=O)(=O)NC(=O)C5CCCO5)CC4)cn3)nc2n(C2CCCC2)c1=O` (centres unmarked) [Compound A39, N-((4-(6-((6-Acetyl-8-cyclopentyl-5-methyl-7-oxo-7,8-dihydropyrido[2,3-d]-pyrimidin-2-yl)amino)pyridin-3-yl)piperazin-1-yl)sulfonyl)tetrahydrofuran-2-carboxamide], the concentration for half-maximal inhibition (IC50) in test [1] is ≤ 0.2 µM; in test [5], 0.2 to 0.5 µM. Also, the “RPR (relative protection rate)” value in test [3] (compound 1 μM, Irinotecan (20 μM)) was found to be 79%; in test [3] (compound 10 μM, Irinotecan (20 μM)), 86%. Moreover, the EC50 in test [4] lay in the range of 1 to 10 µM.
For the compound `CC(=O)c1c(C)c2cnc(Nc3ccc(N4CCN(S(=O)(=O)NCC(=O)O)CC4)cn3)nc2n(C2CCCC2)c1=O` [Compound A44, ((4-(6-((6-Acetyl-8-cyclopentyl-5-methyl-7-oxo-7,8-dihydropyrido[2,3-d]-pyrimidin-2-yl)amino)pyridin-3-yl)piperazin-1-yl)sulfonyl)glycine], the IC50 in test [1] and in test [5] was ≤ 0.2 µM each time. Besides, the “RPR (relative protection rate)” value in test [3] (compound 5 μM, 5-Fu (10 μM)) was 90%; in test [3] (compound 20 μM, 5-Fu (10 μM)), 65%. For the same compound, the EC50 in test [4] fell in the range of 1 to 10 µM.
`CC(=O)c1c(C)c2cnc(Nc3ccc(N4CCN(S(=O)(=O)N5CCOCC5)CC4)cn3)nc2n(C2CCCC2)c1=O` [Compound A51, 6-Acetyl-8-cyclopentyl-5-methyl-2-((5-(4-(morpholinosulfonyl)piperazin-1-yl)-pyridin-2-yl)amino)pyrido[2,3-d]pyrimidin-7(8H)-one]: the IC50 in test [1] and in test [5] was ≤ 0.2 µM throughout. Besides, in test [4], the EC50 was in the range of 1 to 10 µM.
As to `CC(=O)c1c(C)c2cnc(Nc3ccc(N4CCN(S(=O)(=O)N5CC(O)C5)CC4)cn3)nc2n(C2CCCC2)c1=O` [Compound A52, 6-Acetyl-8-cyclopentyl-2-((5-(4-((3-hydroxyazetidin-1-yl)sulfonyl)piperazin-1-yl)pyridin-2-yl)amino)-5-methylpyrido[2,3-d]pyrimidin-7(8H)-one], the IC50 in test [1] and in test [5] was ≤ 0.2 µM throughout. Further, the half-maximal effective concentration (EC50) in test [4] lay in the range of 1 to 10 µM.
As to `CC(=O)c1c(C)c2cnc(Nc3ccc(N4CCN(S(=O)(=O)NC(=O)OCCNC(=O)[C@H](N)C(C)C)C[C@@H]4C)cn3)nc2n(C2CCCC2)c1=O` [Compound A55, 2-((R)-2-Amino-3-methylbutanamido)ethyl (((S)-4-(6-((6-acetyl-8-cyclopentyl-5-methyl-7-oxo-7,8-dihydropyrido[2,3-d]pyrimidin-2-yl)amino)pyridin-3-yl)-3-methylpiperazin-1-yl)sulfonyl)carbamate], the IC50 in test [1] and in test [5] was ≤ 0.2 µM in each case. Also, the “RPR (relative protection rate)” value in test [3] (compound 0.1 μM, 5-Fu (10 μM)) turned out to be 38%; in test [3] (compound 10 μM, 5-Fu (10 μM)), 88%. In test [4], the concentration giving a half-maximal response (EC50) lay in the range of 1 to 10 µM.
Take `CC(=O)c1c(C)c2cnc(Nc3ccc(N4CCN(S(=O)(=O)OCOC(=O)c5ccccc5)CC4)cn3)nc2n(C2CCCC2)c1=O` [Compound B3, (((4-(6-((6-Acetyl-8-cyclopentyl-5-methyl-7-oxo-7,8-dihydropyrido[2,3-d]-pyrimidin-2-yl)amino)pyridin-3-yl)piperazin-1-yl)sulfonyl)oxy)methyl benzoate]: the half-maximal inhibitory concentration (IC50) in test [1] and in test [5] was ≤ 0.2 µM in each case. Moreover, the half-maximal effective concentration (EC50) in test [4] was 1 to 10 µM.
